Among the data in the PolyMetriX glass transition set are glass transition temperature values, retold here.

In the case of `*C(=O)Oc1ccc(C(C)(C)c2ccc(OC(=O)c3ccc4c(c3)C(=O)N(c3ccc(O)c(N5C(=O)c6ccc(*)cc6C5=O)c3)C4=O)cc2)cc1` (repeat unit), the glass transition temperature turned out to be 225.00 °C. Molecule `*C(=O)Oc1ccc(C(C)(C)c2ccc(OC(=O)c3ccc4c(c3)C(=O)N(c3cccc(N5C(=O)c6ccc(*)cc6C5=O)c3)C4=O)cc2)cc1` (repeat unit) gave a glass transition temperature of 225.00 °C. The molecule `*C(=O)c1ccc2c(c1)C(=O)N(c1cccc(P(=O)(c3cccc(N4C(=O)c5ccc(*)cc5C4=O)c3)c3cc(C(F)(F)F)cc(C(F)(F)F)c3)c1)C2=O` (repeat unit) gave a glass transition temperature of 243.00 °C. With `*CC(COc1ccc(C(C)(C)c2ccc(O*)cc2)cc1)OC(=O)c1ccccc1Cl` (repeat unit) the figure was 66.00 °C. `*CC(O)CN(CC(O)COc1ccc(C(C)(C)c2ccc(O*)cc2)cc1)c1ccc(C#N)cc1` (repeat unit) yielded a glass transition temperature of 100.00 °C. Take `*CC(O)CN(Cc1ccccc1)CC(O)COc1ccc(C(C)(C)c2ccc(O*)cc2)cc1` (repeat unit): the glass transition temperature was 94.2 °C. For the molecule `*CC(O)COC(=O)C1CCC(C(=O)OCC(O)COc2ccc(C(C)(C)c3ccc(O*)cc3)cc2)CC1` (repeat unit), the glass transition temperature was found to be 70.00 °C. Consider `*CC(O)COC(=O)CCCCC(=O)OCC(O)COc1ccc(C(C)(C)c2ccc(O*)cc2)cc1` (repeat unit), for which the glass transition temperature was determined as 34.00 °C. `*CC(O)COc1ccc(C(C)(C)c2ccc(O*)cc2)cc1` (repeat unit) returned a glass transition temperature of 91.00 °C. With `*CC(O)COc1ccc(C(C)(C)c2ccc(OCC(O)COc3ccc(C4(c5ccc(O*)cc5)c5ccccc5-c5ccccc54)cc3)cc2)cc1` (repeat unit), the glass transition temperature was determined as 161.00 °C.

`*CC(O)COc1ccc(C(C)(C)c2ccc(OCC(O)COc3ccc(NC(=O)CCCCCC(=O)Nc4ccc(O*)cc4)cc3)cc2)cc1` (repeat unit) gave a glass transition temperature of 116.00 °C.

Molecule `*CC(O)COc1ccc(C(C)(C)c2ccc(OCC(O)COc3ccc(S(=O)(=O)c4ccc(O*)c(C)c4)cc3C)cc2)cc1` (repeat unit) displayed a glass transition temperature of 117.50 °C. Consider `*CC(O)COc1ccc(C(C)(C)c2ccc(OCC(O)COc3cccc(C(=O)Nc4cccc(O*)c4)c3)cc2)cc1` (repeat unit), for which the glass transition temperature was determined as 117.00 °C. In turn, `*CC(O)COc1ccc(C(C)(C)c2ccc(OCC(O)COc3cccc(NC(=O)CCCCC(=O)Nc4cccc(O*)c4)c3)cc2)cc1` (repeat unit) had a glass transition temperature of 103.00 °C. `*CC(O)COc1ccc(C(C)(C)c2ccc(OCC(O)COc3cccc(NC(=O)CCCCCC(=O)Nc4cccc(O*)c4)c3)cc2)cc1` (repeat unit): the glass transition temperature is 107.00 °C.

For `*CC(O)COc1ccc(C(C)(CC)c2ccc(O*)cc2)cc1` (repeat unit), the glass transition temperature turned out to be 95.00 °C. In turn, `*CC(O)COc1ccc(S(=O)(=O)c2ccc(OCC(O)COc3ccc(S(=O)(=O)c4ccc(O*)c(C)c4)cc3C)cc2)cc1` (repeat unit) gave a glass transition temperature of 142.50 °C. With `*CCCCCCCCOc1ccc(C(c2ccc(O*)cc2)(C(F)(F)F)C(F)(F)F)cc1` (repeat unit) the figure was 27.80 °C; with `*CCCOCCCCOCCCN1C(=O)c2ccc(C(=O)Oc3ccc(C(C)(C)c4ccc(OC(=O)c5ccc6c(c5)C(=O)N(*)C6=O)cc4)cc3)cc2C1=O` (repeat unit), 60.00 °C; with `*O[Si](C)(C)OC(CCl)COc1ccc(C(C)(C)c2ccc(OCC(*)CCl)cc2)cc1` (repeat unit), 24.00 °C.

On to `*Oc1ccc(-c2ccc(OC(*)(Oc3ccccc3)Oc3ccccc3)c(C)c2)cc1C` (repeat unit), for which the glass transition temperature was determined as 125.00 °C.

Consider `*Oc1ccc(C(C)(C)c2ccc(OC(=O)c3ccc(Cc4ccc(C(*)=O)cc4)cc3)cc2)cc1` (repeat unit), for which the glass transition temperature worked out at 205.00 °C.

`*Oc1ccc(C(C)(C)c2ccc(OC(=O)c3ccc(OCCCCCCCCCCOc4ccc(C(*)=O)cc4)cc3)cc2)cc1` (repeat unit): the glass transition temperature came out at 77.00 °C.

Turning to `*Oc1ccc(C(C)(C)c2ccc(OC(=O)c3ccc(Oc4ccc(C(*)=O)cc4)cc3)cc2)cc1` (repeat unit), the glass transition temperature was found to be 220.00 °C.

In turn, `*Oc1ccc(C(C)(CC(C)C)c2ccc(OC(*)=S)cc2)cc1` (repeat unit) displayed a glass transition temperature of 128.00 °C. As for `*Oc1ccc(C(C)(CC)c2ccc(OC(*)=S)cc2)cc1` (repeat unit), the glass transition temperature was determined as 102.00 °C.

Consider `*Oc1ccc(C(CCC)c2ccc(OC(*)=S)cc2)cc1` (repeat unit), for which the glass transition temperature worked out at 130.00 °C. In the case of `*Oc1ccc(C2(c3ccc(OC(=O)c4cccc(C(*)=O)c4)c(C)c3)c3ccccc3-c3ccccc32)cc1C` (repeat unit) it was 287.00 °C; in that of `*Oc1ccc(S(=O)(=O)c2ccc(OC3(F)C(*)(F)C(F)(F)C3(F)F)cc2)cc1` (repeat unit), 162.20 °C. `*c1cc(C(c2ccc(OCCN(C)c3ccc(/C=C/C4=CC(=C(/C#N)C(=O)OCCc5ccccc5)/CC(C)(C)C4)cc3)c(N3C(=O)c4ccc(Oc5ccc6c(c5)C(=O)N(*)C6=O)cc4C3=O)c2)(C(F)(F)F)C(F)(F)F)ccc1OCCN(c1ccccc1)c1ccc(/C=C/C2=CC(=C(/C#N)C(=O)OCCc3ccccc3)/CC(C)(C)C2)cc1` (repeat unit) showed a glass transition temperature of 177.00 °C. With `*c1cc(C(c2ccc(OCCN(C)c3ccc(/C=C/C4=CC(=C(/C#N)S(C)(=O)=O)/CC(C)(C)C4)cc3)c(N3C(=O)c4ccc(Oc5ccc6c(c5)C(=O)N(*)C6=O)cc4C3=O)c2)(C(F)(F)F)C(F)(F)F)ccc1OCCN(C)c1ccc(/C=C/C2=CC(=C(/C#N)S(C)(=O)=O)/CC(C)(C)C2)cc1` (repeat unit) the figure was 225.00 °C; with `*c1ccc(Cc2ccc(N3C(=O)C(Cl)=C(Oc4ccc(C(C)(C)c5ccc(OC6=C(Cl)C(=O)N(*)C6=O)cc5)cc4)C3=O)cc2)cc1` (repeat unit), 172.00 °C. On to `*c1ccc(OC(=O)c2cccc(C(=O)Oc3ccc(C4(*)NC(=O)c5ccccc54)cc3)c2)cc1` (repeat unit), for which the glass transition temperature was 325.00 °C. `*c1ccc(OC(=O)c2cccc(C(=O)Oc3ccc(C4(*)c5ccccc5C(=O)N4C)cc3)c2)cc1` (repeat unit) returned a glass transition temperature of 285.00 °C. With `*c1ccc(OCCCCCCN(CC)c2ccc(C(C#N)=C(C#N)C#N)cc2)c(-c2cc(-c3ccccc3)c3cc(Oc4ccc5nc(*)cc(-c6ccccc6)c5c4)ccc3n2)c1` (repeat unit) the figure was 175.00 °C; with `*c1ccc(Oc2ccc(N3C(=O)C(Cl)=C(Oc4ccc(C(C)(C)c5ccc(OC6=C(Cl)C(=O)N(*)C6=O)cc5)cc4)C3=O)cc2)cc1` (repeat unit), 175.00 °C; with `*c1ccc2c(c1)C(=O)N(c1cc(N3C(=O)c4ccc(C(*)(C(F)(F)F)C(F)(F)F)cc4C3=O)ccc1OCCCCCCOc1ccc(-c3ccc(OCC)cc3)cc1)C2=O` (repeat unit), 150.30 °C. In the case of `*c1ccc2c(c1)C(=O)N(c1cc(N3C(=O)c4ccc(C(*)(C(F)(F)F)C(F)(F)F)cc4C3=O)ccc1OCCCCCCOc1ccc(/N=N/c3ccc(OCC)cc3)cc1)C2=O` (repeat unit) it was 198.00 °C.
